# Entries after “also recorded” stand apart in the source; their conditions may differ. Like-named read-outs stand apart in the source and are kept apart here.
# Legend:
# [1] = test system: derivative cell line of Huh7; experiment: Cytotoxicity (cell density versus negative control group); assay type: cell-based
# Description: (§1) The derivative cell line of Huh7 and the virus strain of HCV were used in this experiment. The virus strain can produce high-titer and infectious virus particles of HCV in the cells.
# (§2) The cells were inoculated in 96-well flat-bottomed plates at a concentration of 1×10^4/100 μl/well and cultivated overnight. The HCV supernatant was diluted to 1×10^3 ffu/ml with complete medium (DMEM contains 10% fetal bovine serum, 100 U/ml penicillin and 100 μg/ml streptomycin) and infected the cells at 50 ffu/well.
# Instructions to Cytotoxicity: Noncytotoxic=the cell density of the experimental group/the cell density of the negative control group[…] Cytotoxicity=the cell density of the experimental group/the cell density of the negative control group<80%
# HCV = experiment: Focus reduction assay of HCV infection; assay type: cell-based; details: for inhibition effect towards HCV: summary in words; for inhibition at 100 µg/mL: 100 μg/ml; for Inhibition Rate of the number of Virus foci (%): cells pre-incubated 1 hour with interferon
# Description: The stock solutions with a concentration of 20 mg/ml were prepared by dissolving the samples in DMSO and were kept at 4° C. When testing, the stored stock solutions were diluted to 5 mg/ml and 2 mg/ml with DMSO.
# as §1, §2
# The sample solutions with different concentrations (2 mg/ml and 1 mg/ml) were respectively diluted in complete medium at a volume ratio of 1:50 to reach the concentrations of 40 μg/ml and 20 μg/ml. […] After 1 hour of incubation at room temperature, the culture medium in the 96-well flat-bottomed plates was discarded, then 100 μl of the above mixed solution was added to each well, and then was cultured for 8 hours in 37° C. incubator containing 5% CO2. After that, the supernatant was discarded, then was washed once with phosphate buffer without calcium or magnesium ion (DPBS). 150 μl of fresh complete medium was added to each well, and then was cultured for 64 hours in 37° C. incubator containing 5% CO2. 150 μl of 4% paraformaldehyde (PFA) was added to each well, and was fixed at room temperature for 15 min. The supernatant was discarded, then was washed with DPBS for 3 times, and Immune fluorescence staining was conducted with anti HCV-E2 human monoclonal antibody and anti-human secondary antibody labeled by immunofluorescein, then was watched with fluorescence microscope and the amounts of virus colony were recorded.
# In the negative control group, DMSO was used instead of the sample solutions, and other conditions were the same as that in sample testing.
# The solution of the interferon was diluted to 5, 50 and 500 IU/ml respectively with complete medium, and were hatched for 1 hour with cells, then diluted virus solution was added. Other conditions were the same as that in the extract testing. The inhibition rate=(the amount of virus colony in the negative control group−the amount of viruscolony in the experimental group)/the amount of virus colony in the negative control group×100%.
# [2] = Hepatitis C virus, Huh-7, read-out: Inhibition Rate of the number of Virus foci (%)
# [3] = Hepatitis C virus, Huh-7, 10 μg/ml, Huh7 derivative cells, read-out: Inhibition Rate of the number of Virus foci (%)
# [4] = Hepatitis C virus, Huh-7, 5 μg/ml, Huh7 derivative cells, read-out: Inhibition Rate of the number of Virus foci (%)
# [5] = Hepatitis C virus, Huh-7, 20 μg/ml, Huh7 derivative cells, read-out: Inhibition Rate of the number of Virus foci (%)
# [6] = Hepatitis C virus, Huh-7, Huh7 derivative cells, read-out: Inhibition Rate of the number of Virus foci (%)
molecule,measurement,setting,value
"O=C1c2ccccc2C(=O)c2c(O)ccc(O)c21 [1,4-dihydroxyl-9,10-anthraquinone]",Cytotoxicity,[1]; 5 μg/ml,None
same,inhibition at 5 µg/mL,HCV; [2],81%
same,inhibition effect towards HCV,HCV,obvious inhibition effect
"O=C1c2cccc(O)c2C(=O)c2c(O)cccc21 [1,8-Dihydroxyl-9,10-anthraquinone, 1,8-dihydroxyl-9,10-anthraquinone]",inhibition at 0.04 µg/mL,"HCV; Hepatitis C virus, Huh-7, 0.04 μg/ml, Huh7 derivative cells, read-out: Inhibition Rate of the number of Virus foci (%)",45%
same,inhibition at 0.2 µg/mL,"HCV; Hepatitis C virus, Huh-7, 0.2 μg/ml, Huh7 derivative cells, read-out: Inhibition Rate of the number of Virus foci (%)",100%
same,inhibition effect towards HCV,HCV,obvious inhibition effect
"O=C1c2ccccc2C(=O)c2c1cc(S(=O)(=O)[O-])c(O)c2O.[Na+] [Alizarin Red S, 1,2-dihydroxylanthraquinone-3-sulfonate]",inhibition at 10 µg/mL,HCV; [3],22%
same,inhibition effect towards HCV,HCV,obvious inhibition effect
"O=C1c2ccccc2C(=O)c2c1ccc(O)c2O [Alizarin, 1,2-dihydroxyl-9,10-anthraquinone]",Cytotoxicity,[1]; 10 μg/ml,None
same,inhibition at 10 µg/mL,HCV; [2],31%
same,inhibition effect towards HCV,HCV,obvious inhibition effect
"O=C1c2cccc(O)c2C(=O)c2c(O)cc(CO)cc21 [Aloe-emodin, 1,8-dihydroxyl-3-hydroxymethyl anthraquinone]",inhibition at 5 µg/mL,HCV; [4],95%
same,inhibition at 20 µg/mL,HCV; [5],100%
same,inhibition effect towards HCV,HCV,obvious inhibition effect
"O=C1c2ccccc2C(=O)c2ccccc21 [Anthraquinone, 9,10-anthraquinone]",inhibition at 5 µg/mL,HCV; [4],44%
same,inhibition effect towards HCV,HCV,obvious inhibition effect
"O=c1cc(-c2ccc(O)cc2)oc2cc(O)cc(O)c12 [Apigenin, reference compound]",inhibition at 5 µg/mL,HCV; [4],11%
same,inhibition at 20 µg/mL,HCV; [5],47%
"Cc1cc(O)c2c(c1)C(=O)c1cccc(O)c1C2=O [Chrysophanic acid, 1,8-dihydroxyl-6-methyl anthraquinone]",inhibition at 5 µg/mL,HCV; [4],21%
same,inhibition at 10 µg/mL,HCV; [3],17%
same,inhibition at 20 µg/mL,HCV; [5],48%
same,inhibition effect towards HCV,HCV,obvious inhibition effect
"Cc1cc(O)c2c(c1)C(=O)c1cc(O)cc(O)c1C2=O [Emodin, 1,3,8-dihydroxyl-6-methyl anthraquinone]",inhibition at 5 µg/mL,HCV; [4],52%
same,inhibition at 10 µg/mL,HCV; [3],79%
same,inhibition at 20 µg/mL,HCV; [5],99%
same,inhibition effect towards HCV,HCV,obvious inhibition effect
"Cc1cc(O[C@@H]2OC(CO)[C@@H](O)C(O)C2O)c2c(c1)C(=O)c1cc(O)cc(O)c1C2=O (stereo partly drawn) [Emodin-8-O-β-D-glucoside, emodin-8-O-β-D-glucoside]",Cytotoxicity,[1]; 100 μg/ml,None
same,inhibition at 100 µg/mL,HCV; [6],40%
same,inhibition effect towards HCV,HCV,obvious inhibition effect
"COc1cc(O)c2c(c1)C(=O)c1cc(C)cc(O)c1C2=O [Physcion, 1,8-dihydroxyl-3-methoxy-6-methyl anthraquinone]",Cytotoxicity,[1]; 5 μg/ml,None
same,Cytotoxicity,[1]; 20 μg/ml,None
same,IC50,HCV; Hepatitis C virus,8 ng/mL
same,inhibition at 5 µg/mL,HCV; [4],100%
same,inhibition at 20 µg/mL,HCV; [5],100%
same,anti-HCV activity compared with the other compounds,HCV; ranking in words,better than other compounds; also recorded: the best
same,inhibition effect towards HCV,HCV,obvious inhibition effect
"COc1cc(O)c2c(c1)C(=O)c1cc(C)cc(O[C@@H]3OC(CO)[C@@H](O)C(O)C3O)c1C2=O (stereo partly drawn) [Physcion-8-O-β-D-glucoside, physcion-8-O-β-D-glucoside]",Cytotoxicity,[1]; 100 μg/ml,None
same,inhibition at 100 µg/mL,HCV; [6],40%
same,inhibition effect towards HCV,HCV,obvious inhibition effect
"O=C(O)c1cc(O)c2c(c1)C(=O)c1cccc(O)c1C2=O [Rhein, 1,8-dihydroxyl-3-carboxyl anthraquinone]",Cytotoxicity,[1]; 5 μg/ml,None
same,Cytotoxicity,[1]; 20 μg/ml,None
same,inhibition at 5 µg/mL,HCV; [2],44%
same,inhibition at 20 µg/mL,HCV; [2],82%
same,inhibition effect towards HCV,HCV,obvious inhibition effect
α-interferon [reference compound],Inhibition Rate of the number of Virus foci (%),HCV; 5 IU/ml,53%
same,Inhibition Rate of the number of Virus foci (%),HCV; 50 IU/ml,79%
same,Inhibition Rate of the number of Virus foci (%),HCV; 500 IU/ml,98%

# — patent US8895725B2, “Use of 9, 10-anthraquinone compounds” (Shanghai Institute of Pharmaceutical Industry, priority 2008, dated 2014)
